Experimental data: PubChem BioAssay AID1845209 (Molecular Pharmacology Branch, DTP, NCI, 2023)

Tested on: NCI-H211 tumor spheroids, viability percent test/control
Test: Anticancer human tumor NCI-H211 cell line growth inhibition;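 note: spheroids exposed to agents for seven days before readout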
Conditions: spheroids with HUVEC and MSC; for IC50: curve of first compound; for viability, T/C: stronger effect = lower value
Method in brief: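 Complex tumor spheroids combined malignant cells with endothelial cells and mesenchymal stem cells. DNA-damaging drugs and DNA repair inhibitors were tested alone and in combination, at half-log dilutions down from clinical Cmax (top 10 microM if Cmax unknown), 0.25% DMSO final.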

[1] = second compound 1 µM, first compound 0.0316 µM
[2] = second compound 1 µM, first compound 0.1 µM
[3] = second compound 1 µM, first compound 0.316 µM
[4] = second compound 1 µM, first compound 1 µM
[5] = second compound 1 µM, first compound 3.16 µM
[6] = second compound 1 µM, first compound 10 µM
[7] = second compound 3.16 µM, first compound 0.0316 µM
[8] = second compound 3.16 µM, first compound 0.1 µM
[9] = second compound 3.16 µM, first compound 0.316 µM
[10] = second compound 3.16 µM, first compound 1 µM
[11] = second compound 3.16 µM, first compound 3.16 µM
[12] = second compound 3.16 µM, first compound 10 µM
[13] = second compound 10 µM, first compound 0.0316 µM
[14] = second compound 10 µM, first compound 0.1 µM
[15] = second compound 10 µM, first compound 0.316 µM
[16] = second compound 10 µM, first compound 1 µM
[17] = second compound 10 µM, first compound 3.16 µM
[18] = second compound 10 µM, first compound 10 µM
[19] = second compound 31.6 µM, first compound 0.0316 µM
[20] = second compound 31.6 µM, first compound 0.1 µM
[21] = second compound 31.6 µM, first compound 0.316 µM
[22] = second compound 31.6 µM, first compound 1 µM
[23] = second compound 31.6 µM, first compound 3.16 µM
[24] = second compound 31.6 µM, first compound 10 µM
[25] = second compound 100 µM, first compound 0.0316 µM
[26] = second compound 100 µM, first compound 0.1 µM
[27] = second compound 100 µM, first compound 0.316 µM
[28] = second compound 100 µM, first compound 1 µM
[29] = second compound 100 µM, first compound 3.16 µM
[30] = second compound 100 µM, first compound 10 µM

| SMILES | IC50 (second compound 1 µM) [µM] | IC50 (second compound 3.16 µM) [µM] | IC50 (second compound 10 µM) [µM] | IC50 (second compound 31.6 µM) [µM] | IC50 (second compound 100 µM) [µM] | viability, T/C [1] [%] | viability, T/C [2] [%] | viability, T/C [3] [%] | viability, T/C [4] [%] | viability, T/C [5] [%] | viability, T/C [6] [%] | viability, T/C [7] [%] | viability, T/C [8] [%] | viability, T/C [9] [%] | viability, T/C [10] [%] | viability, T/C [11] [%] | viability, T/C [12] [%] | viability, T/C [13] [%] | viability, T/C [14] [%] | viability, T/C [15] [%] | other results |
| --- | --- | --- | --- | --- | --- | --- | --- | --- | --- | --- | --- | --- | --- | --- | --- | --- | --- | --- | --- | --- | --- |
| COc1ccc([C@@H](O)c2cc(-c3ncnc4cc(N5CCOCC5)ccc34)c(F)cc2Cl)nn1 + Cn1nnc2c(C(N)=O)ncn2c1=O | 6.28 | 5.81 | 3.89 | < 0.0316 | < 0.0316 | 102 | 102 | 90.3 | 74.5 | 85.3 | 31.5 | 88.9 | 100 | 105 | 69.4 | 73.2 | 33.3 | 99 | 88.6 | 84 | viability, T/C [16]: 71.9%; viability, T/C [17]: 60.7%; viability, T/C [18]: 21.7%; viability, T/C [19]: 41.1%; viability, T/C [20]: 38.5%; viability, T/C [21]: 35.1%; viability, T/C [22]: 34.6%; viability, T/C [23]: 21.1%; viability, T/C [24]: 7.82%; viability, T/C [25]: 21.6%; viability, T/C [26]: 19.3%; viability, T/C [27]: 15.9%; viability, T/C [28]: 8.08%; viability, T/C [29]: 5.69%; viability, T/C [30]: 2.16% |
| Cc1cc(C)c(CNC(=O)c2cc(-c3ccc(CN4CCOCC4)cc3)cc3c2cnn3C2CCCC2)c(=O)[nH]1 + Cn1nnc2c(C(N)=O)ncn2c1=O | 5.6 | 8.08 | 2.06 | 0.081 | < 0.0316 | 92.3 | 81.4 | 70 | 70.6 | 72.7 | 32.3 | 95.3 | 94.7 | 84 | 86.7 | 71.3 | 45 | 95.4 | 93.2 | 66.7 | viability, T/C [16]: 68.7%; viability, T/C [17]: 37.9%; viability, T/C [18]: 36.8%; viability, T/C [19]: 58.4%; viability, T/C [20]: 47.4%; viability, T/C [21]: 35.1%; viability, T/C [22]: 33.7%; viability, T/C [23]: 10.6%; viability, T/C [24]: 19.9%; viability, T/C [25]: 33.6%; viability, T/C [26]: 21.7%; viability, T/C [27]: 18.9%; viability, T/C [28]: 16.3%; viability, T/C [29]: 10.4%; viability, T/C [30]: 7.54% |
| [2H]c1nc(C)nc([2H])c1-c1cc(NC[C@@H](C)c2cccc3c(C(=O)NC)ccnc23)ncn1 + Cn1nnc2c(C(N)=O)ncn2c1=O | > 10 | > 10 | > 10 | 3.3 | < 0.0316 | 97.9 | 96.7 | 93.5 | 95 | 101 | 88.9 | 108 | 113 | 98.7 | 99.7 | 95.3 | 103 | 106 | 105 | 85.5 | viability, T/C [16]: 103%; viability, T/C [17]: 65%; viability, T/C [18]: 82.6%; viability, T/C [19]: 61.5%; viability, T/C [20]: 53.1%; viability, T/C [21]: 49.8%; viability, T/C [22]: 47.5%; viability, T/C [23]: 51.6%; viability, T/C [24]: 18.4%; viability, T/C [25]: 33%; viability, T/C [26]: 21.6%; viability, T/C [27]: 15.9%; viability, T/C [28]: 13.6%; viability, T/C [29]: 11.7%; viability, T/C [30]: 8.11% |
